According to PMC11189555, “Aryl amino acetamides prevent Plasmodium falciparum ring development via targeting the lipid-transfer protein PfSTART1” (Nature Communications, 2024):

Key:
[1] = system: RECQ1 (Q8I2W7); assay: Solvent-PISA (solvent proteome profiling, DIA-MS); format: binding, Plasmodium falciparum; conditions: WEHI991_vs_DMSO, gradient G1, RECQ1
[2] = system: VPS51 (Q8I2A9); assay: Solvent-PISA (solvent proteome profiling, DIA-MS); format: binding, Plasmodium falciparum; conditions: WEHI991_vs_DMSO, gradient G1, VPS51
[3] = system: LSG1 (Q8ILF2); assay: Solvent-PISA (solvent proteome profiling, DIA-MS); format: binding, Plasmodium falciparum; conditions: WEHI991_vs_DMSO, gradient G1, LSG1
[4] = system: Hyp1-Nluc parasites; assay: Egress, invasion & recovery assay (Nluc bioluminescence, smears); format: cell-based, Plasmodium falciparum; conditions: schizonts treated 4 h: M-833 2 µM, W-991 60 nM, ML10 30 nM, E64 10 µM, heparin 100 µg/mL; then washed off
Source text: To measure egress, invasion, and follow-up recovery in the presence of different compounds, we adapted the method developed in[11], using Hyp1-Nluc parasites. A full description is in the Supplementary Information. […]
and compound 4. Note that M-833 was first purchased from MolPort (MolPort -002-267-916) then made in-house at WEHI: the differences observed in EC50s across experiments are attributed to the different batches of M -833. […]
Egress, invasion & recovery assay. To measure egress, invasion and follow up recovery in the presence of different compounds, we adapted the method developed in6, using Hyp1-Nluc parasites7. These parasites episomally express the exported PEXEL protein Hyp1 (PF3D7_0113300) tagged with a NanoLuc luciferase (NLuc) and were selected with 2.5 nM WR99210 (Jacobus). Highly synchronised schizonts were obtained using ML10 (LifeArc) and sorbitol synchronisation, and Percoll-purified (the culture was gently layered over 67% Percoll (Cytiva) in RPMI, and centrifuged for 15 min at 1500 g and the schizont layer was collected and washed). In a 96-well plate, […]
cultures were set up in 4 replicates (3 replicates for the Nluc readout, and one replicate for Giemsa smears) with 1-2% parasitemia, 2% haematocrit, with the following […]
100 μg/ml heparin (Sigma) and 10 μM E64 (Sigma). The schizonts were allowed to egress and invade for 4 h at 37°C. A “background” plate without treatment was left in the fridge during this time. After 4 h, cultures were sorbitol -treated to eliminate schizonts that have not egressed. Smears were made every day for the following 3 days, and 5 μL of the resuspended cultures were taken to measure Nluc activity (to assess parasite’s presence). To measure Nluc activity, 5 μL culture were added to 45 μL NanoGlo reagent (1x Promega lysis buffer and NanoGlo reagent; Promega). The average luminescence of the background cultures was subtracted to the average luminescence of each sample. […]
The viable parasite value was then expressed in log units and parasite reduction ratio was calculated as a decrease in […]

In the case of `CC(C)(Nc1ccc(Cl)c(S(=O)(=O)N2CCOCC2)c1)C(=O)Nc1ccc(F)c(Cl)c1` [WEHI991], the Differential abundance [1] was 0.6685, the Differential abundance [2] was 0.7605 and the Differential abundance [3] was 0.5417.
heparin [reference compound] was tested, and the “parasite growth (Nluc bioluminescence) followed 72 h after 4 h treatment” value [4] was “virtually no recovery after three days”.
